Experimental data: the CheMixHub viscosity set

Assay: xn = mol fraction of the nth substance listed

C=COCCCC + COC(=O)c1ccccc1
viscosity [mPa·s], 100 kPa
Conditions	x2 = 0.0898	x2 = 0.1468	x2 = 0.228	x2 = 0.3145	x2 = 0.4054	x2 = 0.5056	x2 = 0.6161	x2 = 0.7316	x2 = 0.8597
303.15 K	0.437	0.497	0.571	0.657	0.761	0.891	1.038	1.205	1.422
308.15 K	0.421	0.478	0.546	–	–	–	0.974	1.124	1.319
313.15 K	0.4	0.452	0.515	0.585	0.671	0.778	0.897	1.034	1.205

CCCCCCCCCCCCCC + COC(=O)c1ccccc1
101 kPa
Conditions	viscosity [mPa·s]
298.15 K, x1 = 0.0359	1.787
298.15 K, x1 = 0.0603	1.763
298.15 K, x1 = 0.0869	1.742
298.15 K, x1 = 0.114	1.723
298.15 K, x1 = 0.1429	1.706
298.15 K, x1 = 0.1751	1.695
298.15 K, x1 = 0.2075	1.686
298.15 K, x1 = 0.2786	1.675
298.15 K, x1 = 0.3166	1.672
298.15 K, x1 = 0.3592	1.673
298.15 K, x1 = 0.4082	1.68
298.15 K, x1 = 0.4539	1.688
298.15 K, x1 = 0.5114	1.7
298.15 K, x1 = 0.5687	1.718
298.15 K, x1 = 0.6228	1.743
298.15 K, x1 = 0.6938	1.782
298.15 K, x1 = 0.7735	1.842
298.15 K, x1 = 0.8501	1.905
308.15 K, x1 = 0.0334	1.486
308.15 K, x1 = 0.0663	1.471
308.15 K, x1 = 0.0869	1.464
308.15 K, x1 = 0.1156	1.452
308.15 K, x1 = 0.1423	1.444
308.15 K, x1 = 0.1737	1.436
308.15 K, x1 = 0.2082	1.428
308.15 K, x1 = 0.2405	1.422
308.15 K, x1 = 0.2806	1.418
308.15 K, x1 = 0.3218	1.415
308.15 K, x1 = 0.3558	1.415
308.15 K, x1 = 0.4082	1.42
308.15 K, x1 = 0.4482	1.426
308.15 K, x1 = 0.5073	1.438
308.15 K, x1 = 0.5627	1.455
308.15 K, x1 = 0.62	1.478
308.15 K, x1 = 0.6846	1.508
308.15 K, x1 = 0.7661	1.553
308.15 K, x1 = 0.8624	1.613
318.15 K, x1 = 0.0194	1.263
318.15 K, x1 = 0.0462	1.25
318.15 K, x1 = 0.071	1.242
318.15 K, x1 = 0.1011	1.231
318.15 K, x1 = 0.1287	1.223
318.15 K, x1 = 0.1619	1.213
318.15 K, x1 = 0.193	1.205
318.15 K, x1 = 0.2311	1.198
318.15 K, x1 = 0.267	1.193
318.15 K, x1 = 0.3111	1.189
318.15 K, x1 = 0.3471	1.186
318.15 K, x1 = 0.3979	1.187
318.15 K, x1 = 0.4448	1.189
318.15 K, x1 = 0.5017	1.196
318.15 K, x1 = 0.5526	1.206
318.15 K, x1 = 0.6171	1.222
318.15 K, x1 = 0.6828	1.244
318.15 K, x1 = 0.7602	1.276
318.15 K, x1 = 0.8353	1.314

C1CCC2CCCCC2C1 (stereo unspecified) + COC(C)(C)C
303.15 K, 101 kPa
Conditions	viscosity [mPa·s]
x2 = 0.1134	1.739
x2 = 0.184	1.547
x2 = 0.2577	1.367
x2 = 0.3906	1.089
x2 = 0.4774	0.935
x2 = 0.5234	0.863
x2 = 0.6441	0.694
x2 = 0.7771	0.543
x2 = 0.8937	0.431

C=CC(C)(O)CCC=C(C)C (stereo unspecified) + COC(C)(C)C
298.15 K, 101.33 kPa
Conditions	viscosity [mPa·s]
x2 = 0.0756	3.692
x2 = 0.1208	3.314
x2 = 0.1819	2.856
x2 = 0.3063	2.093
x2 = 0.3763	1.761
x2 = 0.5129	1.25
x2 = 0.5989	0.9982
x2 = 0.7222	0.7171
x2 = 0.8148	0.5569
x2 = 0.9106	0.4273
x2 = 0.9692	0.3605

O=[N+]([O-])c1ccccc1 + COC(C)(C)C
viscosity [mPa·s], 101.33 kPa
Conditions	x2 = 0.0921	x2 = 0.1852	x2 = 0.2942	x2 = 0.3906	x2 = 0.4845	x2 = 0.695	x2 = 0.7094	x2 = 0.8055	x2 = 0.9053
293.15 K	1.745	1.535	1.345	1.096	1.011	0.7813	0.659	0.5509	0.4676
298.15 K	1.625	1.402	1.203	0.9995	0.8725	–	0.6043	0.507	0.4335

O=[N+]([O-])c1ccccc1 + COC(C)=O
viscosity [mPa·s], 101 kPa
Conditions	298.15 K	308.15 K
x2 = 0.0418	1.689	1.459
x2 = 0.1491	1.449	1.261
x2 = 0.2508	1.25	1.095
x2 = 0.3515	1.076	0.949
x2 = 0.4403	0.941	0.834
x2 = 0.4882	0.875	0.777
x2 = 0.5492	0.796	0.71
x2 = 0.649	0.681	0.611
x2 = 0.7499	0.58	0.523
x2 = 0.8513	0.492	0.446
x2 = 0.9379	0.426	0.388

O=[N+]([O-])c1ccccc1 + COCCO
Conditions	viscosity [mPa·s]
298.15 K, 101 kPa, x1 = 0.0511	1.561
298.15 K, 101 kPa, x1 = 0.101	1.58
298.15 K, 101 kPa, x1 = 0.2028	1.624
298.15 K, 101 kPa, x1 = 0.3038	1.673
298.15 K, 101 kPa, x1 = 0.4004	1.72
298.15 K, 101 kPa, x1 = 0.4502	1.743
298.15 K, 101 kPa, x1 = 0.5003	1.764
298.15 K, 101 kPa, x1 = 0.5524	1.785
298.15 K, 101 kPa, x1 = 0.6001	1.801
298.15 K, 101 kPa, x1 = 0.6981	1.829
298.15 K, 101 kPa, x1 = 0.7856	1.847
298.15 K, 101 kPa, x1 = 0.8931	1.85
298.15 K, 101 kPa, x1 = 0.9407	1.839
303.15 K, 101.33 kPa, x2 = 0.132	1.553
303.15 K, 101.33 kPa, x2 = 0.2148	1.514
303.15 K, 101.33 kPa, x2 = 0.2725	1.49
303.15 K, 101.33 kPa, x2 = 0.3929	1.453
303.15 K, 101.33 kPa, x2 = 0.5243	1.428
303.15 K, 101.33 kPa, x2 = 0.5584	1.425
303.15 K, 101.33 kPa, x2 = 0.7423	1.409
303.15 K, 101.33 kPa, x2 = 0.8512	1.397
303.15 K, 101.33 kPa, x2 = 0.9147	1.391
